We go through 40 compounds from US10017520B2, “Myc modulators and uses thereof” (Massachusetts Institute of Technology, priority 2014, dated 2018).

The structures appear in SMILES notation.

The first assay relates to c-Myc. Nature of the assay: c-Myc reporter gene assay (Qiagen) in HEK293T cells. The conditions noted are these: Homo sapiens, HEK-293T, 16 h, treatment 16 hours, Firefly/Renilla ratio. The assay is classed as cell-based. As to the method: Compound 1's activity against Myc was measured as a Firefly/Renilla ratio, using the Myc reporter assay (Qiagen) in HEK293T cells after treatment with compound 1 for 16 hours. Results are expressed as a mean+/−SD (n=3). SD: standard deviation.
Select compounds described herein that were SMM assay positives were evaluated in several versions of a c-Myc reporter gene assay, including a commercial assay from Qiagen. The compounds' activities against c-Myc were measured as a Firefly/Renilla ratio, using the Myc reporter assay (Qiagen) in HEK293T cells after treatment with the compounds for 16 hours.
For orientation: Reporter assays use an easily measured gene product as a stand-in for the process of interest.
As to `O=C1CSC(=O)N1Cc1ccc(Sc2nc3ccccc3[nH]2)o1` [Compound 67, 3-((5-((1H-benzo[d]imidazol-2-yl)thio)furan-2-yl)methyl)thiazolidine-2,4-dione], the IC50 (as a rule, the concentration at which inhibition is half-maximal) worked out at 30 µM.

In the case of `O=C(CN1C(=O)S/C(=C\c2ccc(Sc3nc4ccccc4[nH]3)o2)C1=O)N1CCN(c2ccccc2)CC1` [Compound 34], the IC50 was 7.01 µM.

Regarding `CC(/C=C1\SC(=O)N(C(C)C)C1=O)=C\c1ccccc1` [Compound 37], the IC50 is more than 100 µM.

Turning to `COC(=O)c1ccc2nc(Sc3ccc(/C=C4\SC(=O)N(C(C)C)C4=O)o3)[nH]c2c1` [Compound 63, (Z)-methyl 2-((5-((3-isopropyl-2,4-dioxothiazolidin-5-ylidene)methyl)furan-2-yl)thio)-1H-benzo[d]imidazole-6-carboxylate], the IC50 was determined as 1.49 µM.

For `CC(C)N1C(=O)S/C(=C\c2ccc(Sc3nc4ccc(NC(=O)c5ccccc5)cc4[nH]3)o2)C1=O` [Compound 61, (Z)—N-(2-((5-((3-isopropyl-2,4-dioxothiazolidin-5-ylidene)methyl)furan-2-yl)thio)-1H-benzo[d]imidazol-6-yl)benzamide], the half-inhibitory concentration (IC50) amounted to 0.4 µM.

Take `c1ccc(NCc2ccc(Sc3nc4ccccc4[nH]3)o2)cc1` [Compound 45, N-((5-((1H-benzo[d]imidazol-2-yl)thio)furan-2-yl)methyl)aniline]: the concentration for half-maximal inhibition (IC50) came out at 4.66 µM.

As for `COC(=O)CN1C(=O)S/C(=C\c2ccc(Sc3nc4ccccc4[nH]3)o2)C1=O` [Compound 15, (Z)-methyl 2-(5-((5-((1H-benzo[d]imidazol-2-yl)thio)furan-2-yl)methylene)-2,4-dioxothiazolidin-3-yl)acetate], the IC50 was 3.26 µM.

Regarding `c1ccc2[nH]c(Sc3ccc(CN4CCOCC4)o3)nc2c1` [Compound 47, 4-((5-((1H-benzo[d]imidazol-2-yl)thio)furan-2-yl)methyl)morpholine], the IC50 was 32.9 µM.

Consider `CC(C)N1C(=O)S/C(=C\c2ccc(Sc3ccccn3)o2)C1=O` [Compound 17, (Z)-3-isopropyl-5-((5-(pyridin-2-ylthio)furan-2-yl)methylene)thiazolidine-2,4-dione], for which the IC50 stood at 7.67 µM.

With `CC(C)N1C(=O)S/C(=C\c2ccc(Sc3nc4ccc(OC(F)(F)F)cc4[nH]3)o2)C1=O` [Compound 56, (Z)-3-isopropyl-5-((5-((6-(trifluoromethoxy)-1H-benzo[d]imidazol-2-yl)thio)furan-2-yl)methylene)thiazolidine-2,4-dione], the half-maximal inhibitory concentration (IC50) amounted to 0.44 µM.

Turning to `O=C1S/C(=C\c2ccc(Sc3nc4ccccc4[nH]3)o2)C(=O)N1c1ccccc1` [Compound 35], the concentration for half-maximal inhibition (IC50) amounted to 11.9 µM.

Turning to `CC(C)N1C(=O)S/C(=C\c2cc3ccc(Sc4nc5ccccc5[nH]4)cc3o2)C1=O` [Compound 68, (Z)-5-((6-((1H-benzo[d]imidazol-2-yl)thio)benzofuran-2-yl)methylene)-3-isopropylthiazolidine-2,4-dione], the IC50 was 0.54 µM.

Regarding `CC(=O)Nc1ccc2nc(Sc3ccc(/C=C4\SC(=O)N(C(C)C)C4=O)o3)[nH]c2c1` [Compound 62, (Z)—N-(2-((5-((3-isopropyl-2,4-dioxothiazolidin-5-ylidene)methyl)furan-2-yl)thio)-1H-benzo[d]imidazol-6-yl)acetamide], the IC50 was 0.93 µM.

As to `CCN1CCN(Cc2ccc(Sc3nc4ccccc4[nH]3)o2)CC1` [Compound 48, 2-((5-((4-ethylpiperazin-1-yl)methyl)furan-2-yl)thio)-1H-benzo[d]imidazole], the IC50 amounted to 10.2 µM.

Take `CCC(C)N1C(=O)S/C(=C\c2ccc(Sc3nc4ccccc4[nH]3)o2)C1=O` (centres unmarked) [Compound 31]: the IC50 is 2.22 µM.

On to `CC(C)N1C(=O)S/C(=C\c2ccc(Sc3ncc[nH]3)o2)C1=O` [Compound 16, (Z)-5-((5-((1H-imidazol-2-yl)thio)furan-2-yl)methylene)-3-isopropylthiazolidine-2,4-dione], for which the IC50 amounted to 20.8 µM.

On to `CC(C)(C)OC(=O)CN1C(=O)S/C(=C\c2ccc(Sc3nc4ccccc4[nH]3)o2)C1=O` [Compound 14, (Z)-tert-butyl 2-(5-((5-((1H-benzo[d]imidazol-2-yl)thio)furan-2-yl)methylene)-2,4-dioxothiazolidin-3-yl)acetate], for which the IC50 was determined as 1.96 µM.

On to `COC(=O)C(C)N1C(=O)S/C(=C\C=C\c2ccco2)C1=O` (centres unmarked) [Compound 38], for which the 50% inhibitory concentration (IC50) is more than 100 µM.

In the case of `COC(=O)CNCc1ccc(Sc2nc3ccccc3[nH]2)o1` [Compound 50, Methyl 2-(((5-((1H-benzo[d]imidazol-2-yl)thio)furan-2-yl)methyl)amino)acetate], the IC50 came to 75.9 µM.

In the case of `CC(C)NC(=O)c1ccc(Sc2nc3ccccc3[nH]2)o1` [Compound 43, 5-((1H-benzo[d]imidazol-2-yl)thio)-N-isopropylfuran-2-carboxamide], the IC50 worked out at 7.9 µM.

Take `CC(C)N1C(=O)S/C(=C\c2cccc(Oc3nc4ccccc4[nH]3)c2)C1=O` [Compound 65, (Z)-5-(3-((1H-benzo[d]imidazol-2-yl)oxy)benzylidene)-3-isopropylthiazolidine-2,4-dione]: the IC50 stood at 0.99 µM.

For `O=C(NCCCN1C(=O)S/C(=C\c2ccc(Sc3nc4ccccc4[nH]3)o2)C1=O)Nc1ccccc1` [Compound 20, (Z)-1-(3-(5-((5-((1H-benzo[d]imidazol-2-yl)thio)furan-2-yl)methylene)-2,4-dioxothiazolidin-3-yl)propyl)-3-phenylurea], the IC50 amounted to 1.22 µM.

`COC(=O)C(C)N1C(=O)S/C(=C\c2ccc(Sc3nc4ccccc4[nH]3)o2)C1=O` (centres unmarked) [Compound 32]: the IC50 came to 6.24 µM.

Turning to `CC(C)NCc1ccc(Sc2nc3ccccc3[nH]2)o1` [Compound 46], the IC50 amounted to 57.5 µM.

As for `CC(C)N1C(=O)S/C(=C\c2ccc(Sc3nc4ccc(N)cc4[nH]3)o2)C1=O` [Compound 60, (Z)-5-((5-((6-amino-1H-benzo[d]imidazol-2-yl)thio)furan-2-yl)methylene)-3-isopropylthiazolidine-2,4-dione], the IC50 was 4.56 µM.

Regarding `NCCCN1C(=O)S/C(=C\c2ccc(Sc3nc4ccccc4[nH]3)o2)C1=O` [Compound 19, (Z)-5-((5-((1H-benzo[d]imidazol-2-yl)thio)furan-2-yl)methylene)-3-(3-aminopropyl)thiazolidine-2,4-dione 2,2,2-trifluoroacetate], the IC50 was found to be 7.3 µM.

Take `CC(C)N1C(=O)S/C(=C\c2ccc(Sc3nc4ccccc4n3C)o2)C1=O` [Compound 18, (Z)-3-isopropyl-5-((5-((1-methyl-1H-benzo[d]imidazol-2-yl)thio)furan-2-yl)methylene)thiazolidine-2,4-dione]: the IC50 is 1.67 µM.

Turning to `CC(C)N1C(=O)S/C(=C\c2ccc(Sc3nc4ccccc4[nH]3)cc2)C1=O` [Compound 64, (Z)-5-(4-((1H-benzo[d]imidazol-2-yl)thio)benzylidene)-3-isopropylthiazolidine-2,4-dione], the IC50 was determined as 1.82 µM.

Regarding `CC(C)N1C(=O)S/C(=C\c2ccc(Sc3nc4ccc([N+](=O)[O-])cc4[nH]3)o2)C1=O` [Compound 57, (Z)-3-isopropyl-5-((5-((6-nitro-1H-benzo[d]imidazol-2-yl)thio)furan-2-yl)methylene)thiazolidine-2,4-dione], the IC50 was 0.36 µM.

For the compound `Cc1ccc(Sc2ccc(/C=C3\SC(=O)N(C(C)C)C3=O)o2)cc1` [Compound 39], the IC50 is more than 100 µM.

With `O=C(Nc1ccccc1)c1ccc(Sc2nc3ccccc3[nH]2)o1` [Compound 42, 5-((1H-benzo[d]imidazol-2-yl)thio)-N-phenylfuran-2-carboxamide], the IC50 came out at 3.32 µM.

Take `CN(C)Cc1ccc(Sc2nc3ccccc3[nH]2)o1` [Compound 49, 1-(5-((1H-benzo[d]imidazol-2-yl)thio)furan-2-yl)-N,N-dimethylmethanamine]: the half-inhibitory concentration (IC50) came to 59.4 µM.

For the compound `CCNC(=O)NCCCN1C(=O)S/C(=C\c2ccc(Sc3nc4ccccc4[nH]3)o2)C1=O` [Compound 21], the IC50 is 6.77 µM.

The assay is the same for the next values; noted with them: Homo sapiens, HEK-293T, treatment 16 hours, Firefly/Renilla ratio.
Turning to `CN1C(=O)C(=Cc2ccc(Sc3nc4ccccc4[nH]3)o2)C(=O)N(C)C1=O` [Compound 53, 5-((5-((1H-benzo[d]imidazol-2-yl)thio)furan-2-yl)methylene)-1,3-dimethylpyrimidine-2,4,6(1H,3H,5H)-trione], the IC50 stood at 26.8 µM.

Consider `CC(C)N1C(=O)S/C(=C\c2ccc(Sc3nc4ccccc4[nH]3)s2)C1=O` [Compound 11, (Z)-5-((5-((1H-benzo[d]imidazol-2-yl)thio)thiophen-2-yl)methylene)-3-isopropylthiazolidine-2,4-dione], for which the half-inhibitory concentration (IC50) was found to be 1.62 µM.

The assay is the same for the next values; noted with them: treatment 16 hours, Firefly/Renilla ratio.
In the case of `O=C(O)c1ccc(Sc2nc3ccccc3[nH]2)o1` [Compound 41, 5-((1H-benzo[d]imidazol-2-yl)thio)furan-2-carboxylic acid], the “c-Myc reporter assay IC50” value is “non active”.

`O=C(c1ccc(Sc2nc3ccccc3[nH]2)o1)N1CCOCC1` [Compound 44, (5-((1H-benzo[d]imidazol-2-yl)thio)furan-2-yl)(morpholino)methanone]: the “c-Myc reporter assay IC50” value is “non active”.

As to `O=C(O)CN1C(=O)S/C(=C\c2ccc(Sc3nc4ccccc4[nH]3)o2)C1=O` [Compound 13, (Z)-2-(5-((5-((1H-benzo[d]imidazol-2-yl)thio)furan-2-yl)methylene)-2,4-dioxothiazolidin-3-yl)acetic acid], the “c-Myc reporter assay IC50” value is “inactive”.

Take `NCCCN1C(=O)S/C(=C\c2ccc(Sc3nc4ccccc4[nH]3)o2)C1=O` [Compound 19, (Z)-5-((5-((1H-benzo[d]imidazol-2-yl)thio)furan-2-yl)methylene)-3-(3-aminopropyl)thiazolidine-2,4-dione 2,2,2-trifluoroacetate]: the concentration for half-maximal inhibition (IC50) amounted to 6.52 µM.

Take `O=C1NC(=O)C(=Cc2ccc(Sc3nc4ccccc4[nH]3)o2)C(=O)N1` [Compound 54, 5-((5-((1H-benzo[d]imidazol-2-yl)thio)furan-2-yl)methylene)pyrimidine-2,4,6(1H,3H,5H)-trione]: the “c-Myc reporter assay IC50” value is recorded as “non active”.

As to `COC(=O)c1ccc(Sc2nc3ccccc3[nH]2)o1` [Compound 51, Methyl 5-((1H-benzo[d]imidazol-2-yl)thio)furan-2-carboxylate], the “c-Myc reporter assay IC50” value is “non active”.
